Reference: US8530465B2, “1, 2-disubstituted amido-anthraquinone derivatives, preparation method and application thereof” (National Defense Medical Center, priority 2010, dated 2013)

Key:
EKVX = assay: NCI drug screen, EKVX; format: cell-based, human; details: EKVX (Non-Small Cell Lung Cancer); 1.00E−5 Molar
Experimental: (§1) In brief, cellular protein levels were determined after 48 hours of drug exposure by sulforhodamine B colorimetry. Through the use of a time 0 cell control, the cell growth can be determined for each cell line thus allowing calculations of the 50% growth inhibitory concentration (GI50), the total growth inhibition (TGI), and the 50% lethal concentration (LC50). Comparison to plates not exposed to drug permits determination of concentration and times of exposure conferring 50% net growth inhibition (GI50), TGI, and 50% cell kill (LC50).
(§2) The screening system in United State National Cancer Institute (NCI) is consisted of 60 kinds of different human cancer cells, which can be used to assay the growth-inhibiting ability or cell toxicity of a compound against various cancer and tumor at a certain concentration.

NCI-H322M = assay: NCI drug screen, NCI-H322M; format: cell-based, human; details: NCI-H322M (Non-Small Cell Lung Cancer); 1.00E−5 Molar
Experimental: as §1, §2

MALME-3M = assay: NCI drug screen, MALME-3M; format: cell-based, human; details: MALME-3M (Melanoma); 1.00E−5 Molar
Experimental: as §1, §2

NCI-H226 = assay: NCI drug screen, NCI-H226; format: cell-based, human; details: NCI-H226 (Non-Small Cell Lung Cancer); 1.00E−5 Molar
Experimental: as §1, §2

NCI-H522 = assay: NCI drug screen, NCI-H522; format: cell-based, human; details: NCI-H522 (Non-Small Cell Lung Cancer); 1.00E−5 Molar
Experimental: as §1, §2

NCI-H460 = assay: NCI drug screen, NCI-H460; format: cell-based, human; details: NCI-H460 (Non-Small Cell Lung Cancer); 1.00E−5 Molar
Experimental: as §1, §2

A549/ATCC = assay: NCI drug screen, A549/ATCC; format: cell-based, human; details: A549/ATCC (Non-Small Cell Lung Cancer); 1.00E−5 Molar
Experimental: as §1, §2

NCI drug screen, A489 = format: cell-based, human; details: A489 (Renal Cancer); 1.00E−5 Molar
Experimental: as §1, §2

U251 = assay: NCI drug screen, U251; format: cell-based, human; details: U251 (CNS Cancer); 1.00E−5 Molar
Experimental: as §1, §2

NCI-H23 = assay: NCI drug screen, NCI-H23; format: cell-based, human; details: NCI-H23 (Non-Small Cell Lung Cancer); 1.00E−5 Molar
Experimental: as §1, §2

HOP-92 = assay: NCI drug screen, HOP-92; format: cell-based, human; details: HOP-92 (Non-Small Cell Lung Cancer); 1.00E−5 Molar
Experimental: as §1, §2

OVCAR-8 = assay: NCI drug screen, OVCAR-8; format: cell-based, human; details: OVCAR-8 (Ovarian Cancer); 1.00E−5 Molar
Experimental: as §1, §2

COLO 205 = assay: NCI drug screen, COLO 205; format: cell-based, human; details: COLO 205 (Colon Cancer); 1.00E−5 Molar
Experimental: as §1, §2

MDA-MB-231/ATCC = assay: NCI drug screen, MDA-MB-231/ATCC; format: cell-based, human; details: MDA-MB-231/ATCC (Breast Cancer); 1.00E−5 Molar
Experimental: as §1, §2

SW-620 = assay: NCI drug screen, SW-620; format: cell-based, human; details: SW-620 (Colon Cancer); 1.00E−5 Molar
Experimental: as §1, §2

SK-MEL-2 = assay: NCI drug screen, SK-MEL-2; format: cell-based, human; details: SK-MEL-2 (Melanoma); 1.00E−5 Molar
Experimental: as §1, §2

UACC-62 = assay: NCI drug screen, UACC-62; format: cell-based, human; details: UACC-62 (Melanoma); 1.00E−5 Molar
Experimental: as §1, §2

SK-MEL-28 = assay: NCI drug screen, SK-MEL-28; format: cell-based, human; details: SK-MEL-28 (Melanoma); 1.00E−5 Molar
Experimental: as §1, §2

OVCAR-5 = assay: NCI drug screen, OVCAR-5; format: cell-based, human; details: OVCAR-5 (Ovarian Cancer); 1.00E−5 Molar
Experimental: as §1, §2

TK-10 = assay: NCI drug screen, TK-10; format: cell-based, human; details: TK-10 (Renal Cancer); 1.00E−5 Molar
Experimental: as §1, §2

MOLT-4 = assay: NCI drug screen, MOLT-4; format: cell-based, human; details: MOLT-4 (Leukemia); 1.00E−5 Molar
Experimental: as §1, §2

SK-OV-3 = assay: NCI drug screen, SK-OV-3; format: cell-based, human; details: SK-OV-3 (Ovarian Cancer); 1.00E−5 Molar
Experimental: as §1, §2

[1] = tested on: 60 kinds of different human cancer cells; assay: NCI in vitro 60-cell Drug Screen, whole panel; format: cell-based; details: for growth-inhibiting effect against cancer cells, by cancer type: NCI's screen; for growth-inhibiting effect against cancer cells, by cancer type / Growth Percent, Mean: 1.00E−5 Molar; for Growth Percent, Mean: mean over tested cell lines
Experimental: as §1
From the data analysis it follows that approximately 95% of the actives (potent anticancer drugs) from the 60 cell line screen can be identified. By these criteria, five compounds (each with its certification number, refer to FIG. 4) of the invention were reported that having anticancer activity.
as §2

HL-60(TB) = assay: NCI drug screen, HL-60(TB); format: cell-based, human; details: HL-60(TB) (Leukemia); 1.00E−5 Molar
Experimental: as §1, §2

HCT-116 = assay: NCI drug screen, HCT-116; format: cell-based, human; details: HCT-116 (Colon Cancer); 1.00E−5 Molar
Experimental: as §1, §2

SK-MEL-5 = assay: NCI drug screen, SK-MEL-5; format: cell-based, human; details: SK-MEL-5 (Melanoma); 1.00E−5 Molar
Experimental: as §1, §2

SN12C = assay: NCI drug screen, SN12C; format: cell-based, human; details: SN12C (Renal Cancer); 1.00E−5 Molar
Experimental: as §1, §2

HCC-2998 = assay: NCI drug screen, HCC-2998; format: cell-based, human; details: HCC-2998 (Colon Cancer); 1.00E−5 Molar
Experimental: as §1, §2

UACC-257 = assay: NCI drug screen, UACC-257; format: cell-based, human; details: UACC-257 (Melanoma); 1.00E−5 Molar
Experimental: as §1, §2

RXF 393 = assay: NCI drug screen, RXF 393; format: cell-based, human; details: RXF 393 (Renal Cancer); 1.00E−5 Molar
Experimental: as §1, §2

K562 = assay: NCI drug screen, K562; format: cell-based, human; details: K562 (Leukemia); 1.00E−5 Molar
Experimental: as §1, §2

HS 578-T = assay: NCI drug screen, HS 578-T; format: cell-based, human; details: HS 578-T (Breast Cancer); 1.00E−5 Molar
Experimental: as §1, §2

Row | Structure (SMILES) | Growth Percent (NCI-H322M) [%] | Growth Percent (MALME-3M) [%] | Growth Percent (NCI-H226) [%] | Growth Percent (NCI-H522) [%] | Growth Percent (NCI-H460) [%] | Growth Percent (NCI drug screen, A489) [%] | Growth Percent (U251) [%] | Growth Percent (NCI-H23) [%] | Growth Percent (HOP-92) [%] | Growth Percent (MDA-MB-231/ATCC) [%] | Growth Percent (SW-620) [%] | Growth Percent (SK-MEL-2) [%] | Growth Percent (UACC-62) [%] | Growth Percent (SK-MEL-28) [%] | Growth Percent (OVCAR-5) [%] | Growth Percent (TK-10) [%] | Growth Percent (MOLT-4) [%] | Growth Percent, Mean [1] [%] | Growth Percent (HL-60(TB)) [%] | Growth Percent (HCT-116) [%] | also measured
1 | Cc1ccc(C(=O)Nc2c(NC(=O)CCl)ccc3c2C(=O)c2ccccc2C3=O)cc1 [CC-12, 1-(4-methylbenzamido)-2-(chloroacetamido)-anthraquinone] | 95.05 | −22.41 | −25.30 | 57.88 | 95.65 | 123.78 | −44.02 | −85.89 | −68.77 | 24.67 | −43.27 | 52.00 | −67.80 | −31.94 | 109.55 | 130.52 | −23.17 | −1.96 | −46.88 | −54.27 | Growth Percent (EKVX): 88.22%; Growth Percent (A549/ATCC): −81.71%; Growth Percent (OVCAR-8): 8.72%; Growth Percent (COLO 205): −53.43%; Growth Percent (SK-OV-3): 106.24%; growth-inhibiting effect against cancer cells, by cancer type [1]: exhibited growth-inhibiting effect against cancer cells such as leukemia, non-small cell lung cancer, colon cancer, central nervous system (CNS) cancer, melanoma, ovarian cancer, renal cancer, prostate cancer, breast cancer; Growth Percent (SK-MEL-5): −98.72%; Growth Percent (SN12C): −81.02%
2 | Cc1ccc(C(=O)Nc2ccc3c(c2NC(=O)c2ccc(C)cc2)C(=O)c2ccccc2C3=O)cc1 [CC-04, 1,2-bis-(4-methylbenzamido)-anthraquinone] | 97.74 | 127.16 | 91.14 | 72.05 | 88.62 | 124.08 | 91.73 | 90.57 | 91.21 | 93.29 | 93.79 | 100.65 | 87.50 | 99.46 | 110.18 | 124.91 | 89.63 | 96.19 | 73.11 | 78.55 | Growth Percent (HCC-2998): 84.68%; Growth Percent (UACC-257): 98.46%; Growth Percent (RXF 393): 88.25%; Growth Percent (A549/ATCC): 90.46%; Growth Percent (OVCAR-8): 85.43%; Growth Percent (COLO 205): 108.57%; Growth Percent (K562): 107.54%; Growth Percent (HS 578-T): 105.96%; Growth Percent (SK-OV-3): 109.62%; Growth Percent (SK-MEL-5): 94.04%; Growth Percent (SN12C): 98.59%
3 | O=C(CCl)Nc1ccc2c(c1NC(=O)Cc1ccccc1)C(=O)c1ccccc1C2=O [CC-23, 1-[2-(phenyl)acetylamino]-2-(chloroacetamido)-anthraquinone] | 104.38 | 47.07 | 80.49 | 43.37 | 104.50 | 91.79 | 66.17 | 64.75 | 73.63 | 82.04 | 83.41 | −6.49 | 59.67 | 88.68 | 119.04 | 120.81 | 11.40 | 73.78 | 41.36 | 67.55 | Growth Percent (EKVX): 102.08%; Growth Percent (HCC-2998): 94.74%; Growth Percent (HS 578-T): 66.65%; growth-inhibiting effect against cancer cells, by cancer type [1]: could inhibit the cancer cell growth of leukemia and melanoma; Growth Percent (SK-MEL-5): 51.32%; Growth Percent (SN12C): 79.93%
4 | Cc1ccc(C(=O)Nc2c(NC(=O)CN3CCN(C)CC3)ccc3c2C(=O)c2ccccc2C3=O)cc1 [CC-43, 1-(4-methylbenzamido)-2-[2-(4-methylpiperazino)acetylamino]-anthraquinone] | 72.60 | 10.84 | 93.87 | 88.21 | 37.47 | 67.36 | 22.38 | 89.52 | 90.68 | 37.00 | 39.17 | 123.64 | −20.65 | −57.56 | 106.66 | 101.93 | 26.04 | 46.71 | −8.54 | 8.37 | Growth Percent (EKVX): 78.07%; Growth Percent (HCC-2998): 28.97%; Growth Percent (UACC-257): −50.95%; Growth Percent (RXF 393): 68.84%; Growth Percent (A549/ATCC): 83.89%; Growth Percent (OVCAR-8): 46.43%; Growth Percent (COLO 205): 2.29%; Growth Percent (K562): −4.52%; Growth Percent (HS 578-T): 87.29%; Growth Percent (SK-OV-3): 108.91%; GI50 ([1]; Homo sapiens, 60 cell, NCI screen, FIG. 6, cell line not stated, read-out: 50% net growth inhibition (GI50)): 130 nM; growth-inhibiting effect against cancer cells, by cancer type [1]: could inhibit the cancer cell growth of leukemia, melanoma, and ovarian cancer; Growth Percent (SK-MEL-5): 41.30%; Growth Percent (SN12C): 63.31%
